Reference: patent US8952012B2, “Inhibition of delta-6 desaturase for the treatment of cardiometabolic disease” (Colorado State University Research Foundation, priority 2012, dated 2015)

How the values were obtained:
[1] = cited from earlier work
tissue AA/LA ratios = settings: cited from earlier work
LDLR -/- mice = assay: LDL receptor-lacking mice on Western diet; type: in vivo
Text: (§1) Mice lacking LDL receptors (LDLR −/−) were similarly maintained on a high fat/sucrose Western diet and treated with SC-26196 in a similar manner as described above. As summarized in FIG. 5, SC-26196 treatment ameliorated hyperlipidemia and atherosclerosis in mice lacking LDL receptors fed the Western diet. The treatment also attenuated cardiac dysfunction, pathologic hypertrophy and fibrosis in mice subjected to thoracic aortic banding (TAC) or chronic hypertension (HF), as summarized in FIG. 6.

ob mice = ob mice on high fat/sucrose Western diet; type: in vivo
Description: (§2) To assess the effects of D6D inhibition on structures and processes related to cardiometabolic diseases and disorders, the following experiments were conducted. Animal studies have reported evidence of increased D6D activity in rodent models of CMD (e.g., increase in AA/LA in tissue phospholipids), making them reasonable models for studying the role of D6D in its pathogenesis. To probe the effect of D6D directly, the compound SC-26196, a selective D6D inhibitor was orally administered by admixing the SC-26196 in the food mixtures of the rodent models of CMD at a dosage of about 100 mg/kg/day for four weeks. The rodent models of CMD used in these experiments included a murine model of hyperphagic obesity (leptin-deficient ob mice) and a diet-induced insulin resistance model (normal C57BI/6 mice fed a high-fat “Western” diet) for 8 weeks prior to participation in any experiments.
To assess the interaction of a high-fat Western diet with the effects of D6D inhibition, the following experiment was conducted. The ob mice and the BI/6 mice were maintained on a high fat/sucrose Western diet and part of each group was treated with SC-26196 in a similar manner as described above. The treated and untreated ob and BI/6 mice were compared. FIGS. 4A-4B summarize the results of this experiment.

leptin-deficient ob mice = assay: ob/ob mice (hyperphagic obesity) on normal diet treated 4 weeks; type: in vivo
Description: as §2
Initially, the effects of D6D inhibition in conjunction with a normal diet were assessed. 4 mo old ob/ob mice were administered the selective D6D inhibitor SC-26196 (100 mg/kg/d mixed in chow) for 4 weeks (ob/ob+D6D−; n=12). The ob mice treated with SC-26196 for four weeks (ob+SC) were compared to untreated ob mice (ob) and normal C57BI/6 mice (BI/6). FIGS. 3A-C summarizes the results of this comparison. […] As summarized in FIG. 7, treatment with SC-26196 normalized responses to a glucose tolerance test, decreased serum insulin, and reduced hepatic macrophage (MΦ) content and ser-307 phosphorylation of IRS-1, the canonical cellular mechanism of hepatic insulin resistance resulting from inflammatory signaling. As summarized in FIGS. 8A and 8B, treatment with SC-26196 reduced the hepatic PC/PE ratio in the treated ob mice. FIG. 9 illustrates that SC-26196 treatment normalized the cardiac phospholipid/cardiolipin composition in the treated ob mice.

[2] = molecular target: T1, microsomal triglyceride transfer protein (MTP) (Rattus norvegicus, UniProt D4A1W8); assay: MTP activity, rat liver microsomal extracts; type: biochemical; settings: rat liver microsomal extracts at 100 mpk dosing in vivo; relatively weak potency
T1 construct: rat liver microsomal extracts; from tissue; host or cells: rat liver microsomal extracts
T1 sequence (D4A1W8 22-896): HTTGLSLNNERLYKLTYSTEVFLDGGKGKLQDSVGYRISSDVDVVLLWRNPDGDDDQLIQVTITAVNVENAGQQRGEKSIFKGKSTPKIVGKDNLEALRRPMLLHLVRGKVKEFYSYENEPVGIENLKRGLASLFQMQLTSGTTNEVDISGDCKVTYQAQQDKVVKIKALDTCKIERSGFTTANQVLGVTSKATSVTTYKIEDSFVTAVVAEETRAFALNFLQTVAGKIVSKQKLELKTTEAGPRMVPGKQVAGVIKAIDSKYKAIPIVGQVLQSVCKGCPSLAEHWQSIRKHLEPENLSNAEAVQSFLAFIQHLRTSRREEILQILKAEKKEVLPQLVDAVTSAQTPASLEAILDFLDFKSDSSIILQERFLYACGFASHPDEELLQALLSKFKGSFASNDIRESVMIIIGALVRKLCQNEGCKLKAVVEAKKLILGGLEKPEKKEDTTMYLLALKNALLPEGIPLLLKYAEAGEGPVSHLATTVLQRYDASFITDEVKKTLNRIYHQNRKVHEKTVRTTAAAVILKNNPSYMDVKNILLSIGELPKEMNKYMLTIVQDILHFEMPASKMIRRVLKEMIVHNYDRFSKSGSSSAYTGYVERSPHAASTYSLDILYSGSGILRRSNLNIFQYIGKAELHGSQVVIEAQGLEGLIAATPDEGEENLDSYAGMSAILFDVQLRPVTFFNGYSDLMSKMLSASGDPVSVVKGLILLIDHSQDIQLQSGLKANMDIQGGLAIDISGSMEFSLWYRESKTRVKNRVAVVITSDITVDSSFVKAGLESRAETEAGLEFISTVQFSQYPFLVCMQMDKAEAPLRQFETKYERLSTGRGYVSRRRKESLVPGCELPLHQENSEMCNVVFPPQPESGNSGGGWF
T1 sequence (P04785 20-509 partner): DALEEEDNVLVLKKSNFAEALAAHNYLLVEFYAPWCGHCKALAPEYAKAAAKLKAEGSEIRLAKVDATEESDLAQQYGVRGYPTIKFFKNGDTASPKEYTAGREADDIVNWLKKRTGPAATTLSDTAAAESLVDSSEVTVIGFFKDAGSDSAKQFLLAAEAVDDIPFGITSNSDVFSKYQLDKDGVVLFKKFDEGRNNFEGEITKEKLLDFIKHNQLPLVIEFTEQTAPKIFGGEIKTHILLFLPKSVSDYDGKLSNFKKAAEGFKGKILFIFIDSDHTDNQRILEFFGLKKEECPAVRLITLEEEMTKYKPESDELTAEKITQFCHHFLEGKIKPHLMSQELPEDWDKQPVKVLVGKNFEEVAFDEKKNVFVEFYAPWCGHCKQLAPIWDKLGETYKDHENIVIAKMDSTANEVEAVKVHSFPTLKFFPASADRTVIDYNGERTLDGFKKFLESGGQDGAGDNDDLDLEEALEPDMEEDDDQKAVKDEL

delta-6 desaturase (D6D) [3] = molecular target: T2, delta-6 desaturase (D6D) (Mus musculus, UniProt Q9Z0R9); settings: cited from earlier work
T2 construct: host or cells: endogenous enzyme of the dosed animal
T2 sequence (Q9Z0R9 1-444): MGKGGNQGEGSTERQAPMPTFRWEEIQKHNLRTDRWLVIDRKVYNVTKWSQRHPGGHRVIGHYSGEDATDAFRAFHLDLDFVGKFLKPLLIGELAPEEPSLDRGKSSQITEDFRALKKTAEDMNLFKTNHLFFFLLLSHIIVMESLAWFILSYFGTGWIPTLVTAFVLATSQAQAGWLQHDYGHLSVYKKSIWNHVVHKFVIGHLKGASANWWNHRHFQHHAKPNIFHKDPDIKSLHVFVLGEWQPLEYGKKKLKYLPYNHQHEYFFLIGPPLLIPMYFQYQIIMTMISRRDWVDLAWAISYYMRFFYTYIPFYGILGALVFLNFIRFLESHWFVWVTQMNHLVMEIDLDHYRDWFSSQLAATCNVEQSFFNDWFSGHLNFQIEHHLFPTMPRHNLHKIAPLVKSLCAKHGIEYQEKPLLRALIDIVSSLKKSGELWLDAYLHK

[4] = Liver toxicity on chronic administration; type: in vivo; settings: 100 mpk/d for 4 wks, all animal models tested
[5] = molecular target: T3, microsomal triglyceride transfer protein (MTP) (Bos taurus, UniProt P55156); assay: MTP activity, purified bovine MTP; type: biochemical; settings: relatively weak potency
T3 sequence (P55156 12-887): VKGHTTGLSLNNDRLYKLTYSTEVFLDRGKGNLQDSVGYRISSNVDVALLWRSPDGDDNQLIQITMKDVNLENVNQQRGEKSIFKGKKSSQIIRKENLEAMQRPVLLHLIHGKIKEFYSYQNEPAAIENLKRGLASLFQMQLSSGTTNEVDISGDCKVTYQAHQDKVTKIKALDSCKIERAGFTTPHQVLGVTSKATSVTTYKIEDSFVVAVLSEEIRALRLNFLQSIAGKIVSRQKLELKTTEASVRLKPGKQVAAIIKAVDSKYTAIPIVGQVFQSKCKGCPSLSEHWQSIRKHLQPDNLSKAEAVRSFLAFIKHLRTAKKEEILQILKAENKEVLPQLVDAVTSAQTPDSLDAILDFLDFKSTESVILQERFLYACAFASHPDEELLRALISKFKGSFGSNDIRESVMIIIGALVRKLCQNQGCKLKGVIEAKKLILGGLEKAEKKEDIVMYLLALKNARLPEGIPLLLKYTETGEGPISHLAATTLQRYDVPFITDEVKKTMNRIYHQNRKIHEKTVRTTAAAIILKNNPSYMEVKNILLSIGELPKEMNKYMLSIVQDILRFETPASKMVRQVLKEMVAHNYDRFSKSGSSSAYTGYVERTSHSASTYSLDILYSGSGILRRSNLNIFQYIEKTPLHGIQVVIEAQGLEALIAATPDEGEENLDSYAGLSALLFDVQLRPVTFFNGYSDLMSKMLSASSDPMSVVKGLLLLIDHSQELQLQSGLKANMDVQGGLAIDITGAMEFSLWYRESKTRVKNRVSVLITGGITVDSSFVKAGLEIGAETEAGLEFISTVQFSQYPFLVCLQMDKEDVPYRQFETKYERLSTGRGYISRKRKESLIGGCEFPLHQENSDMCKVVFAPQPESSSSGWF
T3 sequence (P05307 21-510 partner): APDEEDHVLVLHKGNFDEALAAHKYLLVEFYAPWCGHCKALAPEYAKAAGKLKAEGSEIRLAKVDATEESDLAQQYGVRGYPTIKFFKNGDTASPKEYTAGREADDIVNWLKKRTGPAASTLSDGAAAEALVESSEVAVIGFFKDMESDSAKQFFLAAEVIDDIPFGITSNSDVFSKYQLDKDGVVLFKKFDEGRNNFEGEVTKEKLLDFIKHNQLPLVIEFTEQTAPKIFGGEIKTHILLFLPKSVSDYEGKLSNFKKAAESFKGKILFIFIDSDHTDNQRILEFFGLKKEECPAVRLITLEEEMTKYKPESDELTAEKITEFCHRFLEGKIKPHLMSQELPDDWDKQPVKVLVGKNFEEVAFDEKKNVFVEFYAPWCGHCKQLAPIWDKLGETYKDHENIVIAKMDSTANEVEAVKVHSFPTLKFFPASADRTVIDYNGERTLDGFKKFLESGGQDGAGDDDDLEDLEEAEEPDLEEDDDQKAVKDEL

[6] = system: cardiac dysfunction, hypertrophy, fibrosis; assay: Thoracic aortic banding (TAC) or chronic hypertension (HF) model; type: in vivo, mice
Text: as §1

delta-6 desaturase (D6D) [7] = settings: cited from earlier work
[8] = 100 mpk/d mixed in mouse chow, 4 weeks
[9] = ob mice, normal diet, 100 mg/kg/d
[10] = ob/ob mice, cardiac, 100 mg/kg/d, vs lean C57BI/6

SMILES: N#CC(CCCN1CCN(/N=C/c2cccnc2)CC1)(c1ccccc1)c1ccccc1 [SC-26196, (E)-2,2-Diphenyl-5-{4-[(pyridin-3-yl-methylene)amino]piperazin-1-yl}pentanenitrile]
- Peak plasma levels ([1]; 100 mpk ig dosing): 2 µM
- half-life ([1]; 100 mpk ig dosing): 1.2 h
- bioavailability ([1]; 100 mpk ig, based on AUC calculations): about 60%
- effect in a model of acute inflammation (tissue AA/LA ratios; [8]): protective effects
- tissue AA/LA ratios (tissue AA/LA ratios; [8]): reduced
- reversing elevations of tissue AA/LA associated with acute inflammation (tissue AA/LA ratios; lower doses, 50 and 75 mpk/d, 4 wks): ineffective
- atherosclerosis (LDLR -/- mice): ameliorated
- hyperlipidemia (LDLR -/- mice): ameliorated
- fasting blood glucose (ob mice): reduced
- responses to a glucose tolerance test (ob mice): normalized
- serum insulin levels (ob mice): normalized 8-fold elevations
- ser-307 phosphorylation of IRS-1 (leptin-deficient ob mice; ob mice, liver, normal diet, 100 mg/kg/d): reduced
- cardiac oxidative stress (leptin-deficient ob mice; [9]): reduced
- cardiac phospholipid/cardiolipin composition (leptin-deficient ob mice; [9]): normalized
- eicosanoid species in heart tissue (leptin-deficient ob mice; [9]): abolished significant increases
- eicosanoid species in serum (leptin-deficient ob mice; [9]): abolished significant increases
- hepatic PC/PE ratio (leptin-deficient ob mice; [9]): reduced
- hepatic macrophage content (leptin-deficient ob mice; [9]): reduced
- responses to a glucose tolerance test (leptin-deficient ob mice; [9]): normalized
- serum insulin (leptin-deficient ob mice; [9]): decreased
- phospholipid AA/LA ratio of serum, liver, heart and muscle tissue (leptin-deficient ob mice; ob mice, normal diet, 100 mg/kg/d in chow): reversed significant elevations
- cardiac cardiolipin profile (leptin-deficient ob mice; ob/ob mice, 100 mg/kg/d in chow, vs lean C57BI/6): to levels similar to those in lean age-matched control mice
- membrane peroxidizability index (leptin-deficient ob mice; [10]): to levels similar to those in lean age-matched control mice
- phospholipid D6D activity index (20:4/18:2 ratio) (leptin-deficient ob mice; [10]): to levels similar to those in lean age-matched control mice
- phospholipid DHA content (leptin-deficient ob mice; [10]): to levels similar to those in lean age-matched control mice
- MTP activity [2]: inhibited MTP activity
- inhibition of D6D enzymatic activity in vivo (delta-6 desaturase (D6D) [3]; 100 mg/kg b.i.d., i.g. over a 24 hr period): about 65%
- oral activity (delta-6 desaturase (D6D) [3]; at 100 mpk): oral activity
- hepatomegaly [4]: significant hepatomegaly
- MTP activity [5]: inhibited MTP activity
- cardiac dysfunction [6]: attenuated
- fibrosis [6]: attenuated
- pathologic hypertrophy [6]: attenuated
- selectivity for D6D over other desaturase enzymes (delta-6 desaturase (D6D) [7]): potent selectivity
- IC50 (delta-6 desaturase (D6D) [7]; in vitro): 200 nM
